Here are results for six compounds from PubChem BioAssay AID1259407 (Chemical Carcinogenesis Research Information System (CCRIS), 2018).

The subject of this series is CCRIS mutagenicity, Ames/micronucleus/aberration tests. As to the kind of experiment: CCRIS mutagenicity studies.
Setting [1] is: Test System: AMES SALMONELLA TYPHIMURIUM, Strain/Indicator: TA98, Metabolic Activation: NONE, Method: PREINCUBATION
Where [2] appears, read: Test System: AMES SALMONELLA TYPHIMURIUM, Strain/Indicator: TA98, Metabolic Activation: RAT, LIVER, S-9, AROCLOR 1254, Method: PREINCUBATION
Where [3] appears, read: Test System: AMES SALMONELLA TYPHIMURIUM, Strain/Indicator: TA100, Metabolic Activation: NONE, Method: PREINCUBATION
Setting [4] is: Test System: AMES SALMONELLA TYPHIMURIUM, Strain/Indicator: TA100, Metabolic Activation: NONE, Method: STANDARD PLATE.
Where [5] appears, read: Test System: AMES SALMONELLA TYPHIMURIUM, Strain/Indicator: TA100, Metabolic Activation: RAT, LIVER, S-9, AROCLOR 1254, Method: STANDARD PLATE.
The mark [6] stands for this setting: Test System: AMES SALMONELLA TYPHIMURIUM, Strain/Indicator: TA1535, Metabolic Activation: NONE, Method: PREINCUBATION
Setting [7] is: Test System: AMES SALMONELLA TYPHIMURIUM, Strain/Indicator: TA1535, Metabolic Activation: NONE, Method: STANDARD PLATE.
Where [8] appears, read: Test System: AMES SALMONELLA TYPHIMURIUM, Strain/Indicator: TA1537, Metabolic Activation: NONE, Method: PREINCUBATION
[9] abbreviates: Test System: AMES SALMONELLA TYPHIMURIUM, Strain/Indicator: TA98, Metabolic Activation: NONE, Method: STANDARD PLATE.
[10] abbreviates: Test System: AMES SALMONELLA TYPHIMURIUM, Strain/Indicator: TA98, Metabolic Activation: RAT, LIVER, S-9, AROCLOR 1254, Method: STANDARD PLATE.

Structures are written as SMILES. Activity calls are given as the source filed them. No rule for the calls is given here.

Consider `O=NN(c1ccc(C(=O)O)cc1)C1OC[C@@H](O)[C@@H](O)[C@@H]1O` (some centres not stated), for which the mutagenic call (Test System: AMES SALMONELLA TYPHIMURIUM, Strain/Indicator: TA100, Metabolic Activation: NONE, Method: LIQUID INCUBATION) was “active; positive”.
For the compound `OCC1CO1` (configuration not stated), the mutagenic call (End Point: IN VITRO CHROMOSOMAL ABERRATIONS, Test System: CHL CELLS, Metabolic Activation: NONE) was “active; positive (structural changes)”; the mutagenic call (End Point: IN VITRO CHROMOSOMAL ABERRATIONS, Test System: CHL CELLS, Metabolic Activation: RAT, LIVER, S-9, SODIUM PHENOBARBITAL AND 5,6-BENZOFLAVONE) was “active; positive (structural changes)”; the mutagenic call (Test System: AMES SALMONELLA TYPHIMURIUM, Strain/Indicator: TA97, Metabolic Activation: HAMSTER, LIVER, S-9, AROCLOR 1254, Method: PREINCUBATION) was “active; positive”; the mutagenic call (Test System: AMES SALMONELLA TYPHIMURIUM, Strain/Indicator: TA97, Metabolic Activation: NONE, Method: PREINCUBATION) is “active; positive”; the mutagenic call (Test System: AMES SALMONELLA TYPHIMURIUM, Strain/Indicator: TA97, Metabolic Activation: RAT, LIVER, S-9, AROCLOR 1254, Method: PREINCUBATION) was “active; positive”; the mutagenic call (Test System: AMES SALMONELLA TYPHIMURIUM, Strain/Indicator: TA98, Metabolic Activation: HAMSTER, LIVER, S-9, AROCLOR 1254, Method: PREINCUBATION) was “active; positive”. In addition, the mutagenic call runs as follows: under setting [1], “active; positive”; under setting [2], “active; positive”; (Test System: AMES SALMONELLA TYPHIMURIUM, Strain/Indicator: TA100, Metabolic Activation: HAMSTER, LIVER, S-9, AROCLOR 1254, Method: PREINCUBATION) “active; positive”; under setting [3], “active; positive”; under setting [4], “active; positive”; (Test System: AMES SALMONELLA TYPHIMURIUM, Strain/Indicator: TA100, Metabolic Activation: RAT, LIVER, S-9, AROCLOR 1254, Method: PREINCUBATION) “active; positive”. For the same compound, the mutagenic call was “active; positive” under setting [5]; “active; positive” (Test System: AMES SALMONELLA TYPHIMURIUM, Strain/Indicator: TA100, Metabolic Activation: RAT, LIVER, S-9, PCB, Method: PREINCUBATION); “active; positive” (Test System: AMES SALMONELLA TYPHIMURIUM, Strain/Indicator: TA1535, Metabolic Activation: HAMSTER, LIVER, S-9, AROCLOR 1254, Method: PREINCUBATION); “active; positive” under setting [6]; “active; positive” under setting [7]; “active; positive” (Test System: AMES SALMONELLA TYPHIMURIUM, Strain/Indicator: TA1535, Metabolic Activation: RAT, LIVER, S-9, AROCLOR 1254, Method: PREINCUBATION). Further, the mutagenic call was “active; positive” (Test System: AMES SALMONELLA TYPHIMURIUM, Strain/Indicator: TA1537, Metabolic Activation: HAMSTER, LIVER, S-9, AROCLOR 1254, Method: PREINCUBATION); “active; positive” under setting [8]; “active; positive” (Test System: AMES SALMONELLA TYPHIMURIUM, Strain/Indicator: TA1537, Metabolic Activation: RAT, LIVER, S-9, AROCLOR 1254, Method: PREINCUBATION); “active; positive” (Test System: Ames Salmonella typhimurium, Strain/Indicator: TA98, Metabolic Activation: None, Method: Preincubation); “active; positive” (Test System: Ames Salmonella typhimurium, Strain/Indicator: TA98, Metabolic Activation: Rat, Liver, S9, Sodium phenobarbital and 5,6-benzoflavone (10%), Method: Preincubation); “active; positive” (Test System: Ames Salmonella typhimurium, Strain/Indicator: TA100, Metabolic Activation: None, Method: Preincubation). Further, the mutagenic call is “active; positive” (Test System: Ames Salmonella typhimurium, Strain/Indicator: TA100, Metabolic Activation: Rat, Liver, S9, Sodium phenobarbital and 5,6-benzoflavone (10%), Method: Preincubation); “active; positive” (Test System: Ames Salmonella typhimurium, Strain/Indicator: TA1535, Metabolic Activation: None, Method: Preincubation); “active; positive” (Test System: Ames Salmonella typhimurium, Strain/Indicator: TA1535, Metabolic Activation: Rat, Liver, S9, Sodium phenobarbital and 5,6-benzoflavone (10%), Method: Preincubation); “active; positive” (Test System: Ames Salmonella typhimurium, Strain/Indicator: TA1537, Metabolic Activation: None, Method: Preincubation); “inactive; negative” (Test System: Ames Salmonella typhimurium, Strain/Indicator: TA1537, Metabolic Activation: Rat, Liver, S9, Sodium phenobarbital and 5,6-benzoflavone (10%), Method: Preincubation); “active; positive” (Test System: CHINESE HAMSTER V-79, Strain/Indicator: V-79/6-THIOGUANINE, Metabolic Activation: NONE). For the same compound, the mutagenic call by setting is: (Test System: E. coli, Strain/Indicator: WP2uvrA/pKM101, Metabolic Activation: None, Method: Preincubation) “active; positive”; (Test System: E. coli, Strain/Indicator: WP2uvrA/pKM101, Metabolic Activation: Rat, Liver, S9, Sodium phenobarbital and 5,6-benzoflavone (10%), Method: Preincubation) “active; positive”; (Test System: MOUSE LYMPHOMA, Strain/Indicator: L5178Y (TK+/TK-), Metabolic Activation: NONE, Method: SUSPENSION/PLATE) “active; positive”.
Consider `O=C(O)c1ccccc1Nc1cc(Cl)ccc1C(=O)O`, for which the mutagenic call is “inactive; negative” under setting [1]; “inactive; negative” under setting [9]; “inactive; negative” under setting [2]; “inactive; negative” under setting [10]; “inactive; negative” under setting [4]; “inactive; negative” under setting [5]. Also, the mutagenic call is, setting by setting: under setting [7], “inactive; negative”; (Test System: AMES SALMONELLA TYPHIMURIUM, Strain/Indicator: TA1535, Metabolic Activation: RAT, LIVER, S-9, AROCLOR 1254, Method: STANDARD PLATE) “inactive; negative”; (Test System: AMES SALMONELLA TYPHIMURIUM, Strain/Indicator: TA1537, Metabolic Activation: NONE, Method: STANDARD PLATE) “inactive; negative”; (Test System: AMES SALMONELLA TYPHIMURIUM, Strain/Indicator: TA1537, Metabolic Activation: RAT, LIVER, S-9, AROCLOR 1254, Method: STANDARD PLATE) “inactive; negative”; (Test System: AMES SALMONELLA TYPHIMURIUM, Strain/Indicator: TA1538, Metabolic Activation: NONE, Method: STANDARD PLATE) “inactive; negative”; (Test System: AMES SALMONELLA TYPHIMURIUM, Strain/Indicator: TA1538, Metabolic Activation: RAT, LIVER, S-9, AROCLOR 1254, Method: STANDARD PLATE) “inactive; negative”.
Consider `Cc1cc2c(cc1C)-c1cc3ccccc3c3cccc-2c13`, for which the mutagenic call (Test System: AMES SALMONELLA TYPHIMURIUM, Strain/Indicator: TA100, Metabolic Activation: RAT, LIVER, S-9, AROCLOR 1254) was “active; positive”.
With `C=CCC1OC(=O)C=CC1O` (configuration not stated), the mutagenic call is, setting by setting: under setting [9], “inactive; negative”; under setting [10], “inactive; negative”; under setting [4], “inactive; negative”; under setting [5], “inactive; negative”.
Regarding `O=C(O)C[C@H](O)C[C@H](O)/C=C/c1c(C2CC2)nc2ccccc2c1-c1ccc(F)cc1`, the mutagenic call is, setting by setting: under setting [1], “inactive; negative”; (Test System: AMES SALMONELLA TYPHIMURIUM, Strain/Indicator: TA98, Metabolic Activation: S-9, Method: PREINCUBATION) “inactive; negative”; under setting [3], “inactive; negative”; (Test System: AMES SALMONELLA TYPHIMURIUM, Strain/Indicator: TA100, Metabolic Activation: S-9, Method: PREINCUBATION) “inactive; negative”; under setting [6], “inactive; negative”; (Test System: AMES SALMONELLA TYPHIMURIUM, Strain/Indicator: TA1535, Metabolic Activation: S-9, Method: PREINCUBATION) “inactive; negative”. Further, the mutagenic call runs as follows: under setting [8], “inactive; negative”; (Test System: AMES SALMONELLA TYPHIMURIUM, Strain/Indicator: TA1537, Metabolic Activation: S-9, Method: PREINCUBATION) “inactive; negative”; (Test System: ESCHERICHIA COLI, Strain/Indicator: WP2 UVR A, Metabolic Activation: NONE, Method: PREINCUBATION) “inactive; negative”; (Test System: ESCHERICHIA COLI, Strain/Indicator: WP2 UVR A, Metabolic Activation: S-9, Method: PREINCUBATION) “inactive; negative”; (Test System: UDS RAT HEPATOCYTES IN VIVO, Strain/Indicator: CRJ:CD(SD)/THYMIDINE INCORPORATION, Metabolic Activation: NONE, Method: AUTORADIOGRAPHY) “inactive; negative”.
